# Reference: patent US20040219228A1, “Animal model for inflammatory bowel disease” (Pfizer Inc, priority 2003, published 2004)
# Experiments:
# Assay type in all cases: in vivo, mouse
# IFN-γ = IFN-γ levels in homogenised colon samples (ELISA); conditions: mdr1a−/− mice
# Experimental: (§1) Following the acclimatisation period, mdr1a^−/− mice with mild and moderate disease scores (mild disease (0-3) was defined by absence of gain or mild body weight loss (<0.5 g) and no other symptoms, whereas moderate disease (4-10) was defined by similar symptoms as a previous group but with soft faeces or greater loss in body weight (>20%) were randomised into 4 groups and dosed subcutaneously (s.c.) with vehicle (water, n=8) or dexamethasone (0.05 mg/kg, n=9; 0.3 mg/kg, n=8 or 2 mg/kg, n=8) daily for 7 days. The 6 mdr1a^+/+ mice received vehicle (water). During the study period, one mouse from the group treated with 0.3 mg/kg dexamethasone was found dead and two were euthanised (one from the vehicle-treated group and one from the group treated with 0.05 mg/kg dexamethasone). At the end of the study all mice were euthanased. The colon and caecum from each mouse was removed and weighed. Each colon was then divided longitudinally so that one section could be processed for histological analysis and the other for cytokine measurement (see below).
# (§2) Each individual colon sample was homogenised three times for 30 seconds at 4° C. in 3ml of ice-cold Krebs' solution (Sigma Chemical Co. U.K.). Samples were centrifuged for 15 min at 35,000 g (4° C.) and supernatants were removed. IL-8 and IFN-γ levels were then measured by ELISA kits (R&D systems, U.K.). The detection limits of these kits were 31.2-2000 pg/ml. Protein levels was assayed in supernatants using the method described by Bradford (Bradford, M. (1976) Analyt. Biochem. 72, 248-254), utilising Bradford Reagent (Sigma).
# (§3) Data were analysed for the 29 mdr1a^−/− and 6 mdr1a^+/+ mice, which completed the study. Differences between vehicle treated mdr1a^−/− and mdr1a^+/+ mice were analysed using a two sample t-test (assuming equal variance for IFN-γ, growth rate in the acclimatisation period and final weight, and unequal variance for IL-8, colon weight, caecum weight, colon to body weight ratio, caecum to body weight ratio and growth rate during the study period). The effects of dexamethasone treatment were analysed using analysis of variance (ANOVA) allowing for culling group.
# mdr1a^−/− mice = assay: mdr1a−/− mice given chlorinated drinking water as IBD model: clinical signs, body weight, colon and caecum weights; conditions: for Body weight (Mean ± s.e.m.): end of study; for Growth rate (Mean ± s.e.m.): over study period
# Excerpt: Forty male mdr1a^−/− mice (strain FVB.129P2-Pgy3^tm1 N7) and six control male mice (mdr1a^+/+) from the same genetic background (FVB; strain FVB/NTac) (6-8 weeks old) were obtained from Taconic Farms (U.S.A). Mice were individually housed in solid bottom cages containing autoclaved Bee Kay bedding from Bantin & Kingman (U.K.) with the addition of Envirodri, a nesting material made from virgin paper, free from deodorising chemicals, to provide enrichment. Mice were fed on RAT & Mouse No 1 maintenance diet (RMI (E) SQC) (Special Diet services, Witham, Essex, U.K.) on arrival at Pfizer. For this study we used bottled water and Klortabs (5 ppm) (Arrowmight Biosciences, U.K.) to eliminate the possibility of water borne spreading of bacterial pathogens and to provide a water supply with constant levels of chlorine. Water was changed twice a week. This study was carried out in accordance with UK legislation and approved by Pfizer's internal ethical review process.
# Prior to commencing the study, all mice (40 mdr1a^−/− and 6 mdr1a^+/+) acclimatised for 14 days. […] A scoring system was devised with different weightings for different clinical signs (Table 1). The intention was that the score should reflect the severity of the colitis.
# as §1, §3
# IL-8 = IL-8 levels in homogenised colon samples (ELISA); conditions: mdr1a−/− mice
# Experimental: as §1, §2, §3
# [1] = tested on: colon/rectum of mdr1a^−/− mice; assay: Histological grading of colitis severity (score 0-4); conditions: for Colitis severity score graded histologically (Mean ± s.e.m.): scale 0-4
# Experimental: as §1
# The animals were necropsied. The colon/rectum and caecum were weighed and colon/rectum, caecum, ileum, jejunum, duodenum, stomach, mesenteric nodes, thymus, kidney, spleen were sampled and fixed in 10% buffered formalin solution. The colon/rectum and ileum were prepared in a “Swiss roll” technique (Moolenbeek, C. & Ruitenberg E. J. (1981) Lab Anim 15(1):57-9) to evaluate their whole longitudinal section one slide. Tissues were processed routinely in an automatic tissue processor, embedded in paraffin, sectioned at 4-6 μm, stained with hematoxylin and eosin (HE), and examined histologically. The colitis was graded from 0 (no significant findings) to 4 (severe proliferative and ulcerative inflammation) according to the extent of the findings and severity of mucosal changes (Table 2) by a blinded observer. In addition, the mucosal height of the whole colon/rectum were assessed about every 100 μm with a standard interactive microcomputer-assisted image analysis system.
# Colitis severity score is an ordered categorical measure graded on a scale of 0-4. This type of data is generally analysed using a proportional odds model, however due to the small sample size this was not appropriate and ANOVA was used. This makes the assumption of having normally distributed data, which although we had categorical data, seemed to hold approximately true. All analysis was carried out using Genstat 5 Release 4.2 for Windows.
# [2] = 0.05 mg/kg s.c. daily for 7 days
# [3] = 0.3 mg/kg s.c. daily for 7 days
# [4] = lower doses (0.05 and 0.3 mg/kg s.c.)
smiles,measurement,setting,value
C[C@@H]1C[C@H]2[C@@H]3CCC4=CC(=O)C=C[C@]4(C)[C@@]3(F)[C@@H](O)C[C@]2(C)[C@@]1(O)C(=O)CO [dexamethasone],IFN-γ level in homogenised colon (Mean ± s.e.m),IFN-γ; [2],177 ± 32.6 pg/mg protein
same,IFN-γ level in homogenised colon (Mean ± s.e.m),IFN-γ; [3],169 ± 32.6 pg/mg protein
same,IFN-γ level in homogenised colon (Mean ± s.e.m),IFN-γ; 2 mg/kg s.c. daily for 7 days,100 ± 30.5 pg/mg protein
same,Effect on IFN-γ levels in homogenised colons,IFN-γ; any of the doses used,no effect
same,Clinical score (Mean ± s.e.m.),mdr1a^−/− mice; [2],56 ± 8.9
same,Body weight (Mean ± s.e.m.),mdr1a^−/− mice; [2],22.2 ± 0.77 g
same,Growth rate (Mean ± s.e.m.),mdr1a^−/− mice; [2],-0.427 ± 0.099 g/day
same,Clinical score (Mean ± s.e.m.),mdr1a^−/− mice; [3],37 ± 8.9
same,Body weight (Mean ± s.e.m.),mdr1a^−/− mice; [3],22.6 ± 0.77 g
same,Growth rate (Mean ± s.e.m.),mdr1a^−/− mice; [3],-0.260 ± 0.099 g/day
same,Clinical score (Mean ± s.e.m.),mdr1a^−/− mice; 2 mg/kg s.c. daily for 7 days,32 ± 8.3
same,Body weight (Mean ± s.e.m.),mdr1a^−/− mice; 2 mg/kg s.c. daily for 7 days,22.7 ± 0.72 g
same,Growth rate (Mean ± s.e.m.),mdr1a^−/− mice; 2 mg/kg s.c. daily for 7 days,-0.271 ± 0.093 g/day
same,Colon to body weight ratio,"mdr1a^−/− mice; 2 mg/kg s.c. daily for 7 days, vehicle 3.0±0.28, P=0.017",2.1±0.26
same,Absolute colon weight,"mdr1a^−/− mice; 2 mg/kg s.c. daily for 7 days, vehicle 691±52 mg, P<0.01",456 ± 48 mg
same,Effect on overall clinical scores of colitis,mdr1a^−/− mice; 0.05-2 mg/kg s.c.,no effect
same,Effect on final body weight,mdr1a^−/− mice; any of the doses used,no significant effect
same,Effect on growth rate,mdr1a^−/− mice; any of the doses used,no significant effect
same,Effect on absolute colon weight vs. vehicle,mdr1a^−/− mice; [4],no significant effect
same,Effect on colon to body weight ratio vs. vehicle,mdr1a^−/− mice; [4],no significant effect
same,IL-8 level in homogenised colon (Mean ± s.e.m),IL-8; [2],317 ± 65.7 pg/mg protein
same,IL-8 level in homogenised colon (Mean ± s.e.m),IL-8; [3],264 ± 65.7 pg/mg protein
same,IL-8 level in homogenised colon (Mean ± s.e.m),IL-8; 2 mg/kg s.c. daily for 7 days,220 ± 61.5 pg/mg protein
same,Effect on IL-8 levels in homogenised colons,IL-8; any of the doses used,no effect
same,Colitis severity score graded histologically (Mean ± s.e.m.),[1]; [2],4.0 ± 0.42
same,"Colitis severity score, difference from vehicle","[1]; 0.05 mg/kg s.c., p >0.05",0.3
same,Colitis severity score graded histologically (Mean ± s.e.m.),[1]; [3],3.1 ± 0.42
same,"Colitis severity score, difference from vehicle","[1]; 0.3 mg/kg s.c., p >0.05",−0.6
same,Colitis severity score graded histologically (Mean ± s.e.m.),[1]; 2 mg/kg s.c. daily for 7 days,2.4 ± 0.39
same,"Colitis severity score, difference from vehicle","[1]; 2 mg/kg s.c., p <0.05",−1.3
